US10961242B2, “Compounds as autotaxin inhibitors and pharmaceutical compositions comprising the same” (LegoChem Biosciences, Inc., priority 2018, dated 2021)
Where a name gives a salt, the structure may show the parent alone. Read-outs that look alike come from different tables or passages of the source.

Tests used:
[1] = test system: LPA production in blood serum caused by autotoxin; experiment: Inhibitory activity on LPA production in mouse blood serum; assay type: biochemical; settings: mouse blood serum (m), 18:1 LPC, 3 hours at 37° C.
Procedure: After 100-fold dilution of each test compound solution (5 μL) (10 mM, 100%, dimethyl sulfoxide) with 495 μL of methanol, 3 μL of the diluted methanol solution (1% dimethyl sulfoxide) was mixed with 57 μL of human or mouse blood serum solution in a 1.5 mL tube. […] Subsequently, a solution prepared by diluting 10 mg/mL 18:1 LPC solution (50% ethanol) with blood serum to have concentration of 375 μg/mL was aliquoted in an amount of 2 μL to each tube so as to have 50 μL. Each tube was kept for 3 hours in a water bath at 37° C. to allow a reaction. To the tube obtained after the reaction, 100 μL of 0.5 μM 17:0 LPA solution (chloroform/methanol/water=65/35/8) was aliquoted and mixed therein. Centrifuge was carried out for 10 minutes using a centrifuge at conditions of 14,000 rpm and 4° C. 100 μL of 50% methanol solution is aliquoted first to a 96-well polypropylene plate (Agilent Technology 5042-1385), and the supernatant (50 μL) in a tube after the centrifuge was carefully transferred to the plate followed by mixing. After covering it with Well cap (Thermo 276011), analysis was carried out by LC-MS/MS (Agilent 1260).
In the following Table 3, the mouse blood serum was described as (m) and human blood serum was described as (h).

human ENPP2 = human ENPP2 (Homo sapiens (Human), UniProt Q13822); experiment: Inhibitory activity on human ENPP2 (FS-3 assay); assay type: biochemical; settings: read-out: IC50
Procedure: Two-fold dilution of each test compound solution (10 μM, 100% dimethyl sulfoxide) is carried out on 96-well V bottom plate (Costar 3363). After ten-fold dilution of each the test compound solution (100% dimethyl sulfoxide) with deionized distilled water, 10 μL of the diluted each mpound solution (10% dimethyl sulfoxide) was aliquoted to a black flat bottom 96-well plate (Costar 3915).

[2] = human ENPP2, FS-3 substrate, 30 min at 37° C.

SMILES	IC50 [1] [nM]	IC50 (human ENPP2; [2]) [nM]	IC50 (human ENPP2) [nM]
O=C(NCCC(=O)N1CCc2[nH]nnc2C1)c1cnc(NCc2cccc(OC(F)(F)F)c2)nc1 [Compound 2, N-(3-oxo-3-{1H,4H,5H,6H,7H-[1,2,3]triazolo[4,5-c]pyridin-5-yl}propyl)-2-({[3-(trifluoromethoxy)phenyl]methyl}amino)pyrimidine-5-carboxamide]	23	2.1	–
O=C(NC[C@H]1CN(c2ccc3[nH]c(=O)oc3c2)C(=O)O1)c1cnc(NCc2cccc(OC(F)(F)F)c2)nc1 [Compound 10, N-{[(5S)-2-oxo-3-(2-oxo-2,3-dihydro-1,3-benzoxazol-6-yl)-1,3-oxazolidin-5-yl]methyl}-2-({[3-(trifluoromethoxy)phenyl]methyl}amino)pyrimidine-5-carboxamide]	10	–	2.8
O=C(CCN1CCc2[nH]nnc2C1)N1CCN(c2cnc(NC3Cc4ccccc4C3)nc2)CC1 [Compound 12, 1-(4-{2-[(2,3-dihydro-1H-inden-2-yl)amino]pyrimidin-5-yl}piperazin-1-yl)-3-{1H,4H,5H,6H,7H-[1,2,3]triazolo[4,5-c]pyridin-5-yl}propan-1-one]	11	3.2	–
O=C(CCN1CCc2[nH]nnc2C1)N1CCN(c2cnc(NCc3cccc(OC(F)(F)F)c3)nc2)CC1 [Compound 13, 3-{1H,4H,5H,6H,7H-[1,2,3]triazolo[4,5-c]pyridin-5-yl}-1-{4-[2-({[3(trifluoromethoxy)phenyl]methyl}amino)pyrimidin-5-yl]piperazin-1-yl}propan-1-one]	13	3.7	–
O=C(CCN1CCc2[nH]nnc2C1)N1CCC(c2cnc(NC3Cc4ccccc4C3)nc2)CC1 [Compound 14, 1-(4-{2-[(2,3-dihydro-1H-inden-2-yl)amino]pyrimidin-5-yl}piperidin-1-yl)-3-{1H,4H,5H,6H,7H-[1,2,3]triazolo[4,5-c]pyridin-5-yl}propan-1-one]	8	2.4	–
CC(C)(CN1CCc2[nH]nnc2C1)C(=O)N1CCN(c2cnc(NC3Cc4ccccc4C3)nc2)CC1 [Compound 19, 1-(4-{2-[(2,3-dihydro-1H-inden-2-yl)amino]pyrimidin-5-yl}piperazin-1-yl)-2,2-dimethyl-3-{1H,4H,5H,6H,7H-[1,2,3]triazolo[4,5-c]pyridin-5-yl}propan-1-one]	25	3.1	–
O=C(CN1CCN(c2cnc(NC3Cc4ccccc4C3)nc2)CC1)N1CCc2[nH]nnc2C1 [Compound 20, 2-(4-{2-[(2,3-dihydro-1H-inden-2-yl)amino]pyrimidin-5-yl}piperazin-1-yl)-1-{1H,4H,5H,6H,7H-[1,2,3]triazolo[4,5-c]pyridin-5-yl}ethan-1-one]	29	2.6	–
O=C(CN1CCC(c2cnc(NC3Cc4ccccc4C3)nc2)CC1)N1CCc2[nH]nnc2C1 [Compound 22, 2-(4-{2-[(2,3-dihydro-1H-inden-2-yl)amino]pyrimidin-5-yl}piperidin-1-yl)-1-{1H,4H,5H,6H,7H-[1,2,3]triazolo[4,5-c]pyridin-5-yl}ethan-1-one]	57	2.9	–
O=C(CN1CCN(c2cnc(NC3Cc4ccccc4C3)nc2)CC1)Nc1ccc2[nH]c(=O)oc2c1 [Compound 27, 2-(4-{2-[(2,3-dihydro-1H-inden-2-yl)amino]pyrimidin-5-yl}piperazin-1-yl)-N-(2-oxo-2,3-dihydro-1,3-benzoxazol-6-yl)acetamide]	10	2.4	–
O=C(Cc1nnc(-c2cnc(NC3Cc4ccccc4C3)nc2)o1)N1CCc2[nH]nnc2C1 [Compound 33, 2-(5-(2-((2,3-dihydro-1H-inden-2-yl)amino)pyrimidin-5-yl)-1,3,4-oxadiazol-2-yl)-1-(1,4,6,7-tetrahydro-5H-[1,2,3]triazolo[4,5-c]pyridin-5-yl) ethan-1-one]	–	2.4	–
O=C(Cc1nnc(-c2cnc(NCc3cccc(OC(F)(F)F)c3)nc2)o1)N1CCc2[nH]nnc2C1 [Compound 34, 1-{1H,4H,5H,6H,7H-[1,2,3]triazolo[4,5-c]pyridin-5-yl}-2-{5-[2-({[3-(trifluoromethoxy)phenyl]methyl}amino)pyrimidin-5-yl]-1,3,4-oxadiazol-2-yl}ethan-1-one]	52	2	–
O=C(Cc1nnc(-c2ccc(NC3Cc4ccccc4C3)nc2)o1)N1CCc2[nH]nnc2C1 [Compound 36, 2-(5-{6-[(2,3-dihydro-1H-inden-2-yl)amino]pyridin-3-yl}-1,3,4-oxadiazol-2-yl)-1-{1H,4H,5H,6H,7H-[1,2,3]triazolo[4,5-c]pyridin-5-yl}ethan-1-one]	–	2.9	–
O=C(Cc1nnc(-c2cnc(NC3Cc4ccccc4C3)nc2)o1)N1CCc2nc[nH]c2C1 [Compound 38, 2-(5-{2-[(2,3-dihydro-1H-inden-2-yl)amino]pyrimidin-5-yl}-1,3,4-oxadiazol-2-yl)-1-{3H,4H,5H,6H,7H-imidazo[4,5-c]pyridin-5-yl}ethan-1-one]	–	4	–
O=C(Cc1nnc(-c2cnc(NC3Cc4ccccc4C3)nc2)o1)N1CCc2[nH]c(=O)ccc2C1 [Compound 39, 6-[2-(5-{2-[(2,3-dihydro-1H-inden-2-yl)amino]pyrimidin-5-yl}-1,3,4-oxadiazol-2-yl)acetyl]-1,2,5,6,7,8-hexahydro-1,6-naphthyridin-2-one]	–	10.6	–
O=C(Cc1nnc(-c2cnc(NC3Cc4ccccc4C3)nc2)o1)N1CCc2[nH]c(=O)[nH]c2C1 [Compound 40, 5-[2-(5-{2-[(2,3-dihydro-1H-inden-2-yl)amino]pyrimidin-5-yl}-1,3,4-oxadiazol-2-yl)acetyl]-1H,2H,3H,4H,5H,6H,7H-imidazo[4,5-c]pyridin-2-one]	–	10.1	–
O=C(Cc1nnc(-c2cnc(NC3Cc4ccccc4C3)nc2)o1)N1CCc2[nH]ncc2C1 [Compound 42, 2-(5-{2-[(2,3-dihydro-1H-inden-2-yl)amino]pyrimidin-5-yl}-1,3,4-oxadiazol-2-yl)-1-{1H,4H,5H,6H,7H-pyrazolo[4,3-c]pyridin-5-yl}ethan-1-one]	–	8.1	–
Nc1nc2c(s1)CCN(C(=O)Cc1nnc(-c3cnc(NC4Cc5ccccc5C4)nc3)o1)C2 [Compound 43, 1-{2-amino-4H,5H,6H,7H-[1,3]thiazolo[4,5-c]pyridin-5-yl}-2-(5-{2-[(2,3-dihydro-1H-inden-2-yl)amino]pyrimidin-5-yl}-1,3,4-oxadiazol-2-yl)ethan-1-one]	–	11.2	–
O=C(Cc1nnc(-c2cnc(NC3Cc4ccccc4C3)nc2)o1)N1CCc2cn[nH]c2C1 [Compound 44, 2-(5-{2-[(2,3-dihydro-1H-inden-2-yl)amino]pyrimidin-5-yl}-1,3,4-oxadiazol-2-yl)-1-{1H,4H,5H,6H,7H-pyrazolo[3,4-c]pyridin-6-yl}ethan-1-one]	–	16.6	–
O=C(Cn1cc(-c2cnc(NC3Cc4ccccc4C3)nc2)c(CN2CCNCC2)n1)N1CCc2[nH]nnc2C1 [Compound 89, 2-(4-{2-[(2,3-dihydro-1H-inden-2-yl)amino]pyrimidin-5-yl}-3-(piperazin-1-ylmethyl)-1H-pyrazol-1-yl)-1-{1H,4H,5H,6H,7H-[1,2,3]triazolo[4,5-c]pyridin-5-yl}ethan-1-one]	21	4.2	–
O=C(Cn1cc(-c2cnc(NC3Cc4ccccc4C3)nc2)c(CN2CCCNCC2)n1)N1CCc2[nH]nnc2C1 [Compound 90, 2-[3-(1,4-diazepan-1-ylmethyl)-4-{2-[(2,3-dihydro-1H-inden-2-yl)amino]pyrimidin-5-yl}-1H-pyrazol-1-yl]-1-{1H,4H,5H,6H,7H-[1,2,3]triazolo[4,5-c]pyridin-5-yl}ethan-1-one. HCl]	–	2.6	–
CCN1CCN(Cc2nn(CC(=O)N3CCc4[nH]nnc4C3)cc2-c2cnc(NC3Cc4ccccc4C3)nc2)CC1 [Compound 91, 2-(4-{2-[(2,3-dihydro-1H-inden-2-yl)amino]pyrimidin-5-yl}-3-[(4-ethylpiperazin-1-yl)methyl]-1H-pyrazol-1-yl)-1-{1H,4H,5H,6H,7H-[1,2,3]triazolo[4,5-c]pyridin-5-yl}ethan-1-one]	–	2.4	–
O=C(Cn1cc(-c2cnc(NC3Cc4ccccc4C3)nc2)c(CN2CCN(CC(F)F)CC2)n1)N1CCc2[nH]nnc2C1 [Compound 92, 2-(3-{[4-(2,2-difluoroethyl)piperazin-1-yl]methyl}-4-{2-[(2,3-dihydro-1H-inden-2-yl)amino]pyrimidin-5-yl}-1H-pyrazol-1-yl)-1-{1H,4H,5H,6H,7H-[1,2,3]triazolo[4,5-c]pyridin-5-yl}ethan-1-one]	–	2.3	–
O=C(Cn1cc(-c2cnc(NC3Cc4ccccc4C3)nc2)c(CCN2CCOCC2)n1)N1CCc2[nH]nnc2C1 [Compound 93, 2-(4-{2-[(2,3-dihydro-1H-inden-2-yl)amino]pyrimidin-5-yl}-3-[2-(morpholin-4-yl)ethyl]-1H-pyrazol-1-yl)-1-{1H,4H,5H,6H,7H-[1,2,3]triazolo[4,5-c]pyridin-5-yl}ethan-1-one]	–	2.1	–
CCc1nn(CC(=O)N2CCN(C(=O)CO)CC2)cc1-c1cnc(NC2Cc3ccccc3C2)nc1 [Compound 94, 1-{4-[2-(4-{2-[(2,3-dihydro-1H-inden-2-yl)amino]pyrimidin-5-yl}-3-ethyl-1H-pyrazol-1-yl)acetyl]piperazin-1-yl}-2-hydroxyethan-1-one]	–	2.3	–
